Data as given in patent US20260325504A1, “Genetically Engineered Human Pituitary Corticotroph Tumor Organoids Exhibit Divergent Responses to Selective Glucocorticoid Receptor Modulators” (Corcept Therapeutics Incorporated, priority 2022, published 2026).
Entries after “also recorded” stand apart in the source; their conditions may differ.

Legend:
Format in all cases: cell-based, human
[1] = tested on: iPSC^USP48MV organoids; assay: EdU uptake (proliferation) in iPSCUSP48MV organoids; conditions: compound alone, 500 nM, 48 h
Description: (§1) iPSCs were stained for pituitary specific hormones including luteinizing hormone (LH), follicle-stimulating hormone (FSH), growth hormone (GH), prolactin (PRL), ACTH, cytokeratin 8/18 (CAM5.2), pituitary transcription factor PIT-1 and neuroendocrine marker Synaptophysin (Table 5). Cultures were immunostained for proliferation marker EdU (Click-IT EdU Alexa Fluor 555 Imaging Kit, Thermo Fisher Scientific C10338). Antibody dilutions were determined based on manufacturer guidelines and antibody titration (Table 5). Staining was conducted according to previously published protocols. Briefly, organoids and iPSCs grown in 8-well glass bottom chamber slides were fixed using 3.7% formaldehyde, washed with DPBS, permeabilized with 0.5% Triton X-100 (SIGMA X-100, PBS-T, 20 min at room temperature), washed with 0.01% PBS-T, and blocked with 2% donkey serum (Jackson Immuno Research 017-000-121) for 1 hour at room temperature. After blocking, primary antibodies were added and incubated overnight at 4° C. Slides were washed with 0.01% PBS-T and incubated with secondary antibodies (Table 5) with Hoechst (Thermo Fisher Scientific H1399) for 1 hour at room temperature. Organoids were washed and stored in PBS at 4° C. until microscopic analysis. High content confocal microscopy was performed using the Nikon Ti2-E Inverted Microscope (with a Crest X-Light V2 L-FOV Spinning Disk Confocal) at the University of Arizona Cancer Center, or a ZEISS LSM880 34 channel Laser Scanning Confocal Microscope at University of Arizona Marley Imaging Core. Fluorescence intensity was quantified as the percentage of marker-positive cells versus total cells, using Nikon Elements Software (Version 5.21.05). Proliferation for each iPSC line was quantified as the percentage of EdU-positive cells versus total cells.
Sonic Hedgehog (SHH) was withdrawn from the organoid growth media 16 hours prior to treatment. The experimental treatment groups included: vehicle (Veh), mifepristone (500 nM, Selleckchem S2606), GANT61 (5 μM, Stemcell Technologies 73692), ketoconazole (Keto, 10 μM, Selleckchem S1353), pasireotide (Pas, 100 nM, Target Mol TP2207-SB001), octreotide (Oct, 100 nM, Selleckchem P1017), mifepristone plus GANT61, mifepristone plus Keto, mifepristone plus Pas, relacorilant (500 nM, Corcept Therapeutics CORT125134), relacorilant plus Pas, relacorilant plus Oct, or dexamethasone (Dexa, 100 nM, SIGMA S4902). In the combination treatments, cultures were pretreated with the GANT61, Keto, Pas or Oct for 2 hours prior to treatment with mifepristone or Rela. […] The IC50 values used for each hPITO line for each drug were determined based on dose responses (FIG. 12). […]

[2] = tested on: ACTH; assay: Spectral flow cytometry, ACTH positive cells, iPSCUSP48MV organoids; conditions: 48 h, FIGS. 8C, G
Description: (§2) Sonic Hedgehog (SHH) was withdrawn from the organoid growth media 16 hours prior to treatment. The experimental treatment groups included: vehicle (Veh), mifepristone (500 nM, Selleckchem S2606), GANT61 (5 μM, Stemcell Technologies 73692), ketoconazole (Keto, 10 μM, Selleckchem S1353), pasireotide (Pas, 100 nM, Target Mol TP2207-SB001), octreotide (Oct, 100 nM, Selleckchem P1017), mifepristone plus GANT61, mifepristone plus Keto, mifepristone plus Pas, relacorilant (500 nM, Corcept Therapeutics CORT125134), relacorilant plus Pas, relacorilant plus Oct, or dexamethasone (Dexa, 100 nM, SIGMA S4902). In the combination treatments, cultures were pretreated with the GANT61, Keto, Pas or Oct for 2 hours prior to treatment with mifepristone or Rela. PitNET tissue derived organoids hPITO36, hPITO37, hPITO38, hPITO39, and hPITO40 were treated with the following experimental conditions: Vehicle (1), pasireotide (2), relacorilant (3), relacorilant & pasireotide (4), mifepristone (5), mifepristone & pasireotide (6). The IC50 values used for each hPITO line for each drug were determined based on dose responses (FIG. 12). All organoid cultures were treated for 48 hours prior to analysis.
(§3) The multicolor flow cytometry antibody panel was designed using the Cytek® Full Spectrum Viewer online tool to calculate the similarity index. Organoids were harvested in cold Serum-Free Defined Medium media and incubated with Zombie (BioLegend 423107, 1:100) for 15 minutes in the dark at room temperature, followed by incubation with fluorochrome-conjugated/unconjugated primary surface or cytoplasmic antibodies (Table 6) at 4° C. for 30 minutes. Cells were then washed with Cell Staining Buffer (BioLegend 420-201) and incubated at 4° C. for 30 minutes with secondary antibodies (Table 6). Cells were fixed using Cytofix/Cytoperm™ Fixation/Permeabilization Solution (BD Biosciences 554714) and washed with Fixation/Permeabilization wash buffer according to the recommended protocol. […] Data was acquired using the Cytek® Aurora, analyzed using Cytobank Premium software (Beckman Coulter).

[3] = tested on: SSTR5; assay: Spectral flow cytometry, SSTR5 positive cells, iPSCUSP48MV organoids; conditions: 48 h, FIGS. 8B, F
Description: as §2, §3

[4] = tested on: PitNET organoids; assay: PitNET organoid proliferation, apoptosis and cell death (summary); conditions: for tumor cell apoptosis / cell death: PitNET organoids
Description: as §1, with “Slides were washed with 0.01% PBS-T and incubated with secondary antibodies (Table 5) with Hoechst (Thermo Fisher Scientific H1399) for 1 hour at room temperature. Organoids were washed and stored in PBS at 4° C. until microscopic analysis. High content confocal microscopy was performed using the Nikon Ti2-E Inverted Microscope (with a Crest X-Light V2 L-FOV Spinning Disk Confocal) at the University of Arizona Cancer Center, or a ZEISS LSM880 34 channel Laser Scanning Confocal Microscope at University of Arizona Marley Imaging Core.” left out
Nuclear Morphometric Analysis (NMA) using treated organoids was performed based on a published protocol that measures cell viability based on the changes in nuclear morphology of the cells using nuclear stain Hoechst or DAPI [31]. Images of organoid nuclei were analyzed using the ImageJ Nuclear Irregularity Index (NII) plugin for key parameters that included cell area, radius ratio, area box, aspect, and roundness. Using the published spreadsheet template, the NII of each cell was calculated with the following formula: NII=Aspect−Area Box+Radius Ratio+Roundness. […] The percentage of cells in each NII classification category were calculated and plotted as a histogram using GraphPad Prism. […]

Structure (SMILES) | proliferation (EdU uptake) [1] | ACTH positive cells / ACTH expression [2] | percentage of SSTR5 positive cells [3] | PitNET organoid proliferation ([4]; compared to relacorilant) | ACTH positive cells / ACTH expression ([2]; listed as Relacorilant) | magnitude of SSTR5 induction, relacorilant vs mifepristone [3] | tumor cell apoptosis / cell death [4] | tumor cell apoptosis / cell death ([4]; listed as Relacorilant)
CC#C[C@]1(O)CC[C@H]2[C@@H]3CCC4=CC(=O)CCC4=C3[C@@H](c3ccc(N(C)C)cc3)C[C@@]21C [mifepristone, 11β-(4-dimethylaminophenyl)-17ß-hydroxy-17α-(1-propynyl)-estra-4,9-dien-3-one] | significant increase in cell proliferation | significant induction in the number of ACTH positive cells; also recorded: significantly increased the ACTH expression levels | significant increase | preferentially induced the expression of SSTR2, ACTH secretion and PitNET organoid proliferation | – | – | – | –
Cn1cc(S(=O)(=O)N2CCC3=Cc4c(cnn4-c4ccc(F)cc4)C[C@]3(C(=O)c3cc(C(F)(F)F)ccn3)C2)cn1 [relacorilant, (R)-(1-(4-fluorophenyl)-6-((1-methyl-1H-pyrazol-4-yl)sulfonyl)-4,4a,5,6,7,8-hexahydro-1H-pyrazolo[3,4-g]isoquinolin-4a-yl) (4-(trifluoromethyl)pyridin-2-yl) methanone] | did not induce organoid proliferation | did not significantly increase the number of ACTH-positive cells | significant increase | – | did not significantly increase ACTH | significantly greater than that of mifepristone | induced SSTR5 expression and PitNET organoid apoptosis; also recorded: induced PitNET cell death | induces SSTR5 and tumor cell apoptosis
